In article PMC2365101, “Anti-Inflammatory Activity of (Polyphenolic)-Sulfonates and Their Sodium Salts in Rodents” (Metal-Based Drugs, 1998):

How the values were obtained:
[1] = test system: CF1 male mice, LPS Salmonella abortus equi induced death; test: Protection against septic shock (LPS induced endotoxic shock); format: in vivo; conditions: for Percent Survival at 52 hr: LPS 10 mg/kg, CF1 male mice, N=6; for protection from LPS induced death: 16 mg/kg
Description: (§1) Few reports in the literature indicate interaction at these receptor sites other than by peptides or antibodies. […] Blocking these receptors is desirable because the entire inflammation cascade of events is triggered by the early release of TNFa and IL-1. […] Radioisotopes were obtained from New England Nuclear [Dupont, Boston, MA] and substrates and co- factors were obtained from Sigma Chemical Co. [St. Louis, MO]. […] Cell lines were obtained from American Type Culture Collection [Rockville, MD]. In Vivo Tests Anti-inflammatory screen in mice: Male CF male mice weighing 28-32g obtained from Jackson Lab. [Bar Harbor, […]] were used to screen agents at 8 or 16 mg/kg intraperitoneal [I.P.] x 2 administered 3 hr and 30 min prior to administering the irritant, according to Winter's protocol. Evaluation of the induced edema was made by injecting 2% carrageenan in 0.9% saline into the plantar region of the foot. The opposite foot injected with 0.9% isotonic saline was used as a base line. […] Salmonella abortus equi [Lot # 69F4003] […] Drugs from 2 to 16 mg/kg, I.P. were administered 2 hr prior and 2 hr post-injection of the LPS and then subsequently for every 24 hr for the length ofthe animals' lives. Deaths were recorded every 12 hr and continued for 96 hr. […] In vitro TNFa andIL-1 Measurements and Cellular Regulation IC-21 mouse macrophages were maintained in RPMI-1640 + 10% FCS + P/S. After the cells had grown to confluency, E. coli LPS at 10 Ixg/ml was added to the medium. Agents were incubated at 12.5 to 100 µM final concentration for 18 hr. The medium (100 btl) was collected for TNFCt determinations. Interleukin-1 [IL-1] release was determined using P388D1 cells which were maintained in RPMI-1640 + 10% FCS + P/S. The L929 bioassay was used to quantitate the TNF and the IL-1 levels. The L929 mouse fibroblasts were grown in DMEM + 10% FCS + P/S to confluency in 96 well plates and incubated with 100 tl ofmedium from […] or P388D cells after 18 hr. The cells were stained with 0.2% crystal violet in 20% MeOH and read at 580 nm using a Molecular Devices scanner (SOFT-max program). High Affinity Binding to Receptors on L929-106 Cells Two laCi of 125I-TNFct (human recombinant, 30 mCi/tg New England Nuclear) or 125I-IL-1 (70-120[.t Ci/lxg,New England Nuclear) was added to confluency L929 cells for 90 min or 5 hr, respectively with 25, 50 and 100 tM of the test compounds 12]. The cells were washed repeatedly with isotonic saline, pH.7.2 and aliquots counted. Prostaglandin cylcooxygenase activity Mouse J774AI macrophages maintained in Dulbecco's modified Eagle's medium + 15% FCS + P/S. Cells (5 x 106) were incubated with agents (5 to 100 ].tM final concentration) and 3H-arachidonic acid (100 Ci/mol) for 60 min at 37C in a CO2 incubator. The reaction was terminated with 2N HCI, the mixture extracted 2 X with ether, and the organic layer evaporated.

[2] = test system: TNFα release from IC-21 macrophages; test: TNFα release from IC-21 macrophages induced by LPS (L929 bioassay); format: cell-based, mouse; conditions: for TNFα release, Percent of LPS Control: 18 hours exposure to LPS, N=6
Description: as §1

[3] = test system: IL-1 release from P388D1 macrophages; test: IL-1 release from P388D1 macrophages (L929 bioassay); format: cell-based, mouse; conditions: for IL-1 release, Percent of Control: over 18 hours, N=6; for reduction of IL-1 release: 25 and 50 μM, 18 hr
Description: as §1

[4] = test system: J774 A1 mouse macrophages adhesion to L929 fibroblasts; test: Adhesion of J-774 A1 mouse macrophages to confluent L929 fibroblasts; format: cell-based; conditions: for Adhesion, Percent of Control: N=6
[5] = test system: IL-1 release from P388D1 macrophages; test: IL-1 release from P388D1 macrophages (L929 bioassay); format: cell-based, mouse; conditions: 5 μM, over 18 hours, N=6

| Compound | Percent Survival at 52 hr ([1]; 8 mg/Kg I.P.) [%] | Percent Survival at 52 hr ([1]; 16 mg/Kg I.P.) [%] | protection from LPS induced death [1] [%] | TNFα release, Percent of LPS Control ([2]; 5 μM) | TNFα release, Percent of LPS Control ([2]; 12.5 μM) | TNFα release, Percent of LPS Control ([2]; 25 μM) | TNFα release, Percent of LPS Control ([2]; 50 μM) | IL-1 release, Percent of Control ([3]; 12.5 μM) | Adhesion, Percent of Control ([4]; 5 μM, 2 Hours) | Adhesion, Percent of Control ([4]; 5 μM, 5 Hours) | Adhesion, Percent of Control ([4]; 5 μM, 90 min) | Adhesion, Percent of Control ([4]; 12.5 μM, 2 Hours) | Adhesion, Percent of Control ([4]; 12.5 μM, 5 Hours) | Adhesion, Percent of Control ([4]; 12.5 μM, 90 min) | Adhesion, Percent of Control ([4]; 25 μM, 2 Hours) | Adhesion, Percent of Control ([4]; 25 μM, 5 Hours) | Adhesion, Percent of Control ([4]; 25 μM, 90 min) | Adhesion, Percent of Control ([4]; 50 μM, 2 Hours) | Adhesion, Percent of Control ([4]; 50 μM, 5 Hours) | Adhesion, Percent of Control ([4]; 50 μM, 90 min) | also measured |
| --- | --- | --- | --- | --- | --- | --- | --- | --- | --- | --- | --- | --- | --- | --- | --- | --- | --- | --- | --- | --- | --- |
| COc1c2cc(S(=O)(=O)[O-])cc1Cc1cc(S(=O)(=O)[O-])cc(c1OC)Cc1cc(S(=O)(=O)[O-])cc(c1OC)Cc1cc(S(=O)(=O)[O-])cc(c1OC)Cc1cc(S(=O)(=O)[O-])cc(c1OC)Cc1cc(S(=O)(=O)[O-])cc(c1OC)C2.[Na+].[Na+].[Na+].[Na+].[Na+].[Na+] [Compound 6] | 50 | 100 | 100 | 118 + 7% of LPS Control | 102 + 5% of LPS Control | 86 + 6% of LPS Control | 62 + 4% of LPS Control | 6 + 2% of Control | 123 + 6% of Control | 88 + 5% of Control | 137 + 6% of Control | 77 + 6% of Control | 109 + 6% of Control | 133 + 5% of Control | 118 + 7% of Control | 131 + 6% of Control | 128 + 7% of Control | 122 + 6% of Control | 119 + 5% of Control | 103 + 7% of Control | reduction of TNFα release ([2]; 50 μM, 18 hr): 38%; IL-1 release, Percent of Control ([3]; 25 μM): 0% of Control; IL-1 release, Percent of Control ([3]; 50 μM): 0% of Control; reduction of IL-1 release [3]: > 95%; IL-1 release, Percent of Control [5]: 13 + 3% of Control |
| CC(=O)Oc1c2cc(S(=O)(=O)[O-])cc1Cc1cc(S(=O)(=O)[O-])cc(c1OC(C)=O)Cc1cc(S(=O)(=O)[O-])cc(c1OC(C)=O)Cc1cc(S(=O)(=O)[O-])cc(c1OC(C)=O)Cc1cc(S(=O)(=O)[O-])cc(c1OC(C)=O)Cc1cc(S(=O)(=O)[O-])cc(c1OC(C)=O)Cc1cc(S(=O)(=O)[O-])cc(c1OC(C)=O)Cc1cc(S(=O)(=O)[O-])cc(c1OC(C)=O)C2.[Na+].[Na+].[Na+].[Na+].[Na+].[Na+].[Na+].[Na+] [Compound 8] | 67 | 83 | 83 | 73 + 4% of LPS Control | 66 + 4% of LPS Control | 44 + 3% of LPS Control | 53 +4% of LPS Control | 66 + 4% of Control | 73 + 5% of Control | 107 + 5% of Control | 136 + 5% of Control | 61 + 6% of Control | 106 + 6% of Control | 135 + 7% of Control | 91 + 5% of Control | 125 + 7% of Control | 183 + 7% of Control | 92 + 6% of Control | 131 + 7% of Control | 94 + 6% of Control | Percent Survival at 52 hr ([1]; 2 mg/kg I.P.): 67%; Percent Survival at 52 hr ([1]; 4 mg/Kg I.P.): 67%; IL-1 release, Percent of Control ([3]; 25 μM): 0% of Control; IL-1 release, Percent of Control ([3]; 50 μM): 0% of Control; reduction of IL-1 release [3]: > 95%; IL-1 release, Percent of Control [5]: 75+ 5% of Control |
| Pentosan sulfate [Pentosan polysulfate, reference compound] | 67 | 83 | 83 | – | – | – | – | – | 75+7% of Control | 103+5% of Control | 329 + 12% of Control | 53 + 6% of Control | 108+7% of Control | 363 + 16% of Control | 66+ 5% of Control | 169+6% of Control | 260 + 9% of Control | 110+6% of Control | 187 + 7% of Control | 176 +6% of Control | reduction of J774A1 macrophage adhesion ([4]; 12.5 μM, 2 hr): 47% |
